# Data: patent US20240398824A1, “Inhibition Of Rip Kinases For Treating Neurodegenerative Disorders” (The Johns Hopkins University, priority 2018, published 2024)
# System: BV-2 microglia
# Test: Real-time PCR of C1q, IL-6 and TNFα in AβO-activated BV-2 microglia
# Assay type: cell-based
# Design: key to mRNA levels of C1q / mRNA levels of IL-6 / mRNA levels of TNFα: relative expression normalized to GAPDH by 2^-ΔΔCt; PBS = 1
# Conditions: for mRNA levels of IL-6 / mRNA levels of C1q / mRNA levels of TNFα: BV-2 microglia preincubated 1 h with inhibitor 1 μM, then AβO 5 μM 4 h, ±SD; for mRNA levels of IL-6: PBS = 1 ± 0.08, Abeta alone 12.53 ± 0.59; for mRNA levels of C1q: PBS = 1 ± 0.13, Abeta alone 3.7 ± 0.06; for mRNA levels of TNFα: PBS = 1 ± 0.16, Abeta alone 16.19 ± 3.21; for microglial activation / release of multiple inflammatory mediators including C1q, IL-6 and TNFα: inhibitor 1 μM pretreatment, AβO 5 μM, in words
# Description: Synthetic Abeta1-42 oligomers were generated as previously described (PMID: 27834631). Hydroxyfluroisopropanol (HFIP)-treated synthethic Abeta1-42 peptides (rPeptide, Bogart, GA, USA) were dissolved in dimethylsulfoxide (DMSO) and further diluted in phosphate-buffered saline (PBS) to obtain a 250 μM stock solution. The stock solution was incubated at 4° C. for at least 24 hours and stored at −80° C. until use. Before use, the solution was centrifuged at 12,000 g for 10 minutes and the supernatant was used as an oligomeric Aβ.
# BV-2 microglial cells were cultured in DMEM media. 10^6 of BV-2 microglia in 6 well plate were treated with 2.5 μM of Abeta for 4 hrs. Total RNA from cultured cells was extracted with a RNA isolation kit (Qiagen, Valencia, CA, USA) following manufacturer's instructions. RNA concentration was measured spectrophotometrically using a NanoDrop 2000 (Thermo scientific). Subsequently, 2 μg of total RNA was reverse transcribed to cDNA using the High-Capacity cDNA Reverse Transcription System (Life Technologies, Grand Island, NY, USA). Comparative qPCR was performed using fast SYBR Green Master Mix (Life Technologies) and steponeplus real-time pcr system (Applied Biosystems, Foster City, CA, USA). The expression levels of target genes were normalized to the expression of GAPDH and calculated based on the comparative cycle threshold Ct method^−ΔΔ(2) Ct. (n=3)
# To examine the effect of RIPK2 inhibition, 10^6 of BV-2 microglia in 6 well plate were preincubated with DMSO, GSK583 (1 μM, Medchemexpress), OD361 (1 μM, Calbiochem), or Sorafenib (1 μM) for one hour. For mRNA analysis, 5 μM of AβO was treated additional for 4 hours.
SMILES,mRNA levels of IL-6,mRNA levels of C1q,mRNA levels of TNFα,microglial activation,"release of multiple inflammatory mediators including C1q, IL-6 and TNFα"
"Clc1cc2cc(c1)-c1cnn3c1NC(=NCCOCCO2)C=C3 [OD36, 6-Chloro-10,11,14,17-tetrahydro-13H-1,16-etheno-4,8-metheno-1H-pyrazolo[3,4-g][1,14,4,6]dioxadiazacyclohexadecine]",7.64 ± 0.48,0.85 ± 0.12,5.85 ± 0.03,blocked microglial activation,significantly reduced
CNC(=O)c1cc(Oc2ccc(NC(=O)Nc3ccc(Cl)c(C(F)(F)F)c3)cc2)ccn1 [Sorafenib],7.13 ± 0.71,3.3 ± 0.09,9.69 ± 0.47,blocked microglial activation,significantly reduced
